From patent US20230270804A1, “ANTI-HYPERCHOLESTEROLEMIA COMPOSITION AND A METHOD OF MANUFACTURING THE SAME” (NBI BIOSCIENCES PRIVATE LIMITED, priority 2020, published 2023)

Tests used:
[1] = test system: hypercholesterolemia induced wistar rats' models; experiment: Therapeutic study: lipid profile (TC, TG, HDL-C, LDL-C, VLDL); assay type: in vivo, Wistar strain albino rats
Description: (§1) Wistar strain albino rats of body weight ranging from 190-225 g were selected for the present study. The temperature and humidity were kept at optimum (22+2° C.; 40-70% and animals were exposed to natural chronological day night cycles. The experiments were carried out in conformity with the Institutional Animal Ethics Committee.
(§2) The 6 groups were as follows: • 1. Normal Control • 2.
(§3) 1.5-2 ml blood sample was taken from retino-orbital chamber in vials for biochemical estimations at every 15 days. Investigations performed included detailed Total Cholesterol—TC (mg/dl), Triglyceride—TG (mg/dl), High Density Lipoprotein—HDL-C (mg/dl), Low Density Lipoprotein—LDL-C (mg/dl), Very Low-Density Lipoprotein—VLDL (mg/dl), WBC (10^3/u1), RBC (10^6/u1), Hb (g/dl), PCV (%), Reticulocyte (%), Platelet count 10^5/mm^3, Clotting time (Sec), Neutrophils, Lymphocyte, Monocyte and Eosinophil. The estimations were done with Ecoline kits from Erba Mannheim, ERBA diagnostics Mannheml, Germany using Semi Autoanalyzer RX50 of MicroLabs Instruments and COUNCELL21 of Tulip Diagnostics Pvt. Ltd. Lipid peroxidation (Plasma & Liver), HMG Co-Reductase, Creatine phosphokinase (CPK), Lactate dehydrogenase (LDH), SGOT and SGPT were estimated at the end of both the studies using the kits.

[2] = Prophylactic study: hematological parameters; assay type: in vivo, Wistar strain albino rats; conditions: HFD+normal diet, day 0
[3] = test system: Creatine phosphokinase (CPK), Lactate dehydrogenase (LDH), SGOT and SGPT; experiment: Prophylactic study: CPK, LDH, SGOT, SGPT; assay type: in vivo, Wistar strain albino rats
Description: as §3

[4] = Prophylactic study: HbA1c / blood glucose level; assay type: in vivo, Wistar strain albino rats; conditions: HFD fed groups
[5] = Prophylactic study: organ weights after sacrifice; assay type: in vivo, Wistar strain albino rats; conditions: HFD+normal diet
[6] = Prophylactic study (90 days): body weight; assay type: in vivo, Wistar strain albino rats; conditions: for Average Body Weight: HFD+normal diet
Description: as §1, §2

[7] = test system: heart, spleen, lungs, kidney, liver, Aorta; experiment: Therapeutic study: histopathology (heart, spleen, lungs, kidney, liver, aorta); assay type: in vivo
Source text: FIG. 7 depicts the histopathological images of heart. […] FIG. 8 depicts the histopathological images of spleen. […] FIG. 9 depicts the histopathological images of lungs. […] FIG. 10 depicts the histopathological images of kidney. […] FIG. 11 depicts the histopathological images of liver.
(§4) The long-term rise in the electrolyte such as Na and are associated with blood pressure disorders impacting the heart.

[8] = rat, in vivo
Description: The prophylactic study which lasted 90 days used 6 rats per group. […] The 6 groups were as follows: • 1. Normal Control • 2. High Fat Diet (HFD) 1 ml 1/d+Normal Diet • 3. High Fat Diet (HFD)+Normal Diet+the composition of the present invention (OD) • 4, High Fat Diet (HFD)+Normal Diet+the composition of the present invention (BD) • 5. […] The body weights were recorded to the nearest gram (g) with proper tare to 0.0000 with the subject at steady state on the weighing machine. The same weighing machine was used for all the subjects. The machine was tested with a known set of weights for any error.
as §4

[9] = HFD+normal diet, after sacrifice

SMILES: CC(C)c1c(C(=O)Nc2ccccc2)c(-c2ccccc2)c(-c2ccc(F)cc2)n1CC[C@@H](O)C[C@@H](O)CC(=O)O [Statin, Atorvastatin]
- HDL-C ([1]; HFD continued, day 0): 40.33 ± 2.08 mg/dL
- LDL-C ([1]; HFD continued, day 0): 91.67 ± 3.06 mg/dL
- TC ([1]; HFD continued, day 0): 139.67 ± 4.04 mg/dL
- TG ([1]; HFD continued, day 0): 38.67 ± 2.08 mg/dL
- VLDL ([1]; HFD continued, day 0): 3.87 ± 0.31 mg/dL
- HDL-C ([1]; HFD continued, day 15): 40.83 ± 1.15 mg/dL
- LDL-C ([1]; HFD continued, day 15): 92.83 ± 3.82 mg/dL
- TC ([1]; HFD continued, day 15): 138.00 ± 4.00 mg/dL
- TG ([1]; HFD continued, day 15): 38.00 ± 1.80 mg/dL
- HDL-C ([1]; HFD continued, day 30): 42.45 ± 0.44 mg/dL
- LDL-C ([1]; HFD continued, day 30): 91.33 ± 0.21 mg/dL
- TC ([1]; HFD continued, day 30): 134.00 ± 3.00 mg/dL
- TG ([1]; HFD continued, day 30): 37.30 ± 0.44 mg/dL
- VLDL ([1]; HFD continued, day 30): 3.91 ± 0.05 mg/dL
- HDL-C ([1]; HFD continued, day 45): 40.20 ± 2.07 mg/dL
- LDL-C ([1]; HFD continued, day 45): 90.37 ± 0.85 mg/dL
- TC ([1]; HFD continued, day 45): 126.33 ± 4.51 mg/dL
- TG ([1]; HFD continued, day 45): 34.73 ± 1.37 mg/dL
- VLDL ([1]; HFD continued, day 45): 3.86 ± 0.11 mg/dL
- HDL-C ([1]; HFD continued, day 60): 39.82 ± 1.88 mg/dL
- LDL-C ([1]; HFD continued, day 60): 89.52 ± 1.20 mg/dL
- TC ([1]; HFD continued, day 60): 125.15 ± 4.20 mg/dL
- TG ([1]; HFD continued, day 60): 34.41 ± 1.26 mg/dL
- VLDL ([1]; HFD continued, day 60): 3.82 ± 0.10 mg/dL
- HDL-C ([1]; HFD discontinued, day 0): 41.67 ± 1.53 mg/dL
- LDL-C ([1]; HFD discontinued, day 0): 90.67 ± 3.21 mg/dL
- TC ([1]; HFD discontinued, day 0): 134.33 ± 4.04 mg/dL
- TG ([1]; HFD discontinued, day 0): 38.33 ± 2.52 mg/dL
- VLDL ([1]; HFD discontinued, day 0): 3.83 ± 0.38 mg/dL
- HDL-C ([1]; HFD discontinued, day 15): 40.17 ± 0.58 mg/dL
- LDL-C ([1]; HFD discontinued, day 15): 90.60 ± 3.55 mg/dL
- TC ([1]; HFD discontinued, day 15): 133.00 ± 4.58 mg/dL
- TG ([1]; HFD discontinued, day 15): 37.50 ± 2.00 mg/dL
- VLDL ([1]; HFD discontinued, day 15): 3.91 ± 0.34 mg/dL
- HDL-C ([1]; HFD discontinued, day 30): 41.23 ± 0.38 mg/dL
- LDL-C ([1]; HFD discontinued, day 30): 85.03 ± 0.21 mg/dL
- TC ([1]; HFD discontinued, day 30): 129.33 ± 2.08 mg/dL
- TG ([1]; HFD discontinued, day 30): 35.97 ± 0.74 mg/dL
- VLDL ([1]; HFD discontinued, day 30): 3.88 ± 0.04 mg/dL
- HDL-C ([1]; HFD discontinued, day 45): 39.70 ± 0.46 mg/dL
- TC ([1]; HFD discontinued, day 45): 117.67 ± 6.66 mg/dL
- TG ([1]; HFD discontinued, day 45): 34.53 ± 0.83 mg/dL
- VLDL ([1]; HFD discontinued, day 45): 3.69 ± 0.05 mg/dL
- HDL-C ([1]; HFD discontinued, day 60): 38.94 ± 0.82 mg/dL
- LDL-C ([1]; HFD discontinued, day 60): 83.69 ± 1.18 mg/dL
- TC ([1]; HFD discontinued, day 60): 116.49 ± 6.04 mg/dL
- TG ([1]; HFD discontinued, day 60): 34.19 ± 0.83 mg/dL
- level of HDL ([1]; therapeutic study, 60 days): 39 mg/dL
- reduction in LDL ([1]; therapeutic study, 60 days): 8%
- reduction in total cholesterol ([1]; therapeutic study, 60 days): 13%
- Platelet count [2]: 1040 ± 15.2 10³/µL
- Creatine phosphokinase [3, 9]: 1.33 ± 0.04 U/ml
- LDH [3, 9]: 278.50 ± 5.50 U/ml
- SGOT [3, 9]: 59.03 ± 1.49 U/ml
- SGPT [3, 9]: 55.63 ± 0.51 U/ml
- Inhibition in SGPT activity ([3]; prophylactic study, composition twice a day): 20%
- Blood glucose level [4]: able to maintain Blood glucose level similar to normal diet group
- Heart weight [5]: 2.79 ± 0.03 g/100 g bd · wt
- Intestine weight [5]: 3.54 ± 0.03
- Kidney weight [5]: 1.15 ± 0.03 g/100 g bd · wt
- Liver weight [5]: 3.90 ± 0.05 g/100 g bd · wt
- Lungs weight [5]: 1.96 ± 0.02 g/100 g bd · wt
- Spleen weight [5]: 0.65 ± 0.03
- pancreas weight [5]: 0.90 ± 0.05 g/100 g bd · wt
- Average Body Weight ([6]; day 0): 209.83 ± 26.39 gms
- Average Body Weight ([6]; day 15): 213.16 ± 27.47 gms
- Average Body Weight ([6]; day 30): 209.10 ± 20.10 gms
- Average Body Weight ([6]; day 45): 223.83 ± 28.41 gms
- Average Body Weight ([6]; day 60): 222.6 ± 17.46 gms
- Average Body Weight ([6]; day 75): 223.05 ± 8.08 gms
- Average Body Weight ([6]; day 90): 229.72 ± 6.13 gms
- maintenance of body weight ([6]; prophylactic study, after HFD treatment): not able to maintain the body weight
- histopathology of heart ([7]; HFD): cardiac muscle were found stressed
- aorta plaque reduction ([7]; HFD continued): mild
- aorta plaque reduction ([7]; HFD discontinued): moderate reduction in the plaque
- damage to the endothelial lining ([7]; aorta histopathology): mild damage to the endothelial lining
- Sodium and potassium level [8]: enhanced
